From patent US11753407B2, “Compounds for treating spinal muscular atrophy” (PTC Therapeutics, Inc., priority 2012, dated 2023)

How the values were obtained:
[1] = tested on: Smn protein in SMA patient fibroblast cells (GM03813); test: Smn protein assay in cultured cells (SMN HTRF); assay type: cell-based, human; conditions: SMA patient fibroblast cells, 48 hours; for EC1.5x for Smn protein expression: 7-point concentration curve, SMN HTRF, concentration producing 1.5 times Smn protein vs DMSO vehicle control; for maximum fold (Fold) increase of Smn protein: 7-point concentration data, fold relative to vehicle control
Summary of the method: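 Fibroblasts, SMA patient; 5,000 cells/well; 7-pt curve, 3.16-fold serial dilution; 48 h, 37 °C, 5% CO2; RIPA lysis 1 h RT; anti-SMN d2 + kryptate overnight RT; HTRF 665/620 nm; fold vs DMSO; EC1.5×, max fold.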

[2] = tested on: SMN2 minigene mRNA (SMN2-A minigene) in HEK293H cells; test: SMN2 minigene mRNA splicing RT-qPCR assay in cultured cells; assay type: cell-based, human; conditions: Homo sapiens, HEK293-H; concentration increasing full length SMN2 mRNA 1.5-fold relative to vehicle-treated cells; HEK293H cells with SMN2-A minigene, 24 hours, 7-point concentration data; read-out: EC1.5x for production of full length SMN2 mRNA
Summary of the method: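 Stable SMN2-A minigene HEK293H; cpd 7-pt 3.16-fold series, 200× in DMSO, 24 h, 37 °C, n=2. Lysates → multiplex RT-qPCR (minigene FL + GAPDH), efficiency-corrected ΔΔCt vs vehicle. EC1.5× = 1.5-fold FL mRNA gain.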

| melting point [°C] | Compound | EC1.5x for Smn protein expression [1] | maximum fold (Fold) increase of Smn protein [1] | EC (1.5-fold increase) [2] [µM] |
| --- | --- | --- | --- | --- |
| 216 to 222 | Cc1cc(C2CCN(CCO)CC2)cn2c(=O)cc(-c3ccc4nn(C)cc4c3)nc12 [Compound 711, 7-[1-(2-hydroxyethyl)piperidin-4-yl]-9-methyl-2-(2-methyl-2H-indazol-5-yl)-4H-pyrido[1,2-a]pyrimidin-4-one] | **** (an EC1.5x≤0.3 μM is indicated by four stars (****)) | ***** (a fold increase >1.65 is indicated by five stars (*****)) | < 0.1 |
| 216 to 223 | CCCN1CCC(c2cc(C)c3nc(-c4cc5c(C)nc(C)cn5n4)cc(=O)n3c2)CC1 [Compound 712, 2-(4,6-dimethylpyrazolo[1,5-a]pyrazin-2-yl)-9-methyl-7-(1-propylpiperidin-4-yl)-4H-pyrido[1,2-a]pyrimidin-4-one] | **** (an EC1.5x≤0.3 μM is indicated by four stars (****)) | ***** (a fold increase >1.65 is indicated by five stars (*****)) | < 0.1 |
| 246 to 250 | Cc1cn2cc(-c3cc(=O)n4cc(N5CCN[C@H](C)C5)ccc4n3)cc(C3CC3)c2n1 [Compound 715, 2-(8-cyclopropyl-2-methylimidazo[1,2-a]pyridin-6-yl)-7-[(3R)-3-methylpiperazin-1-yl]-4H-pyrido[1,2-a]pyrimidin-4-one] | **** (an EC1.5x≤0.3 μM is indicated by four stars (****)) | ***** (a fold increase >1.65 is indicated by five stars (*****)) | < 0.1 |
| 246 to 250 | Cc1cn2cc(-c3cc(=O)n4cc(N5CCN[C@@H](C)C5)ccc4n3)cc(C3CC3)c2n1 [Compound 716, 2-(8-cyclopropyl-2-methylimidazo[1,2-a]pyridin-6-yl)-7-[(3S)-3-methylpiperazin-1-yl]-4H-pyrido[1,2-a]pyrimidin-4-one] | *** (an EC1.5× between >0.3 μM and ≤1 μM is indicated by three stars (***)) | ***** (a fold increase >1.65 is indicated by five stars (*****)) | < 0.1 |
| 205 to 209 | Cc1cn2cc(-c3cc(=O)n4cc(N5C[C@@H](C)N[C@@H](C)C5)ccc4n3)cc(C3CC3)c2n1 [Compound 717, 2-(8-cyclopropyl-2-methylimidazo[1,2-a]pyridin-6-yl)-7-[(3R,5S)-3,5-dimethylpiperazin-1-yl]-4H-pyrido[1,2-a]pyrimidin-4-one] | *** (an EC1.5× between >0.3 μM and ≤1 μM is indicated by three stars (***)) | ***** (a fold increase >1.65 is indicated by five stars (*****)) | 0.1 to 0.3 |
| 226 to 231 | Cc1cc(C2CCN(C3CC3)CC2)cn2c(=O)cc(-c3ccc4nn(C)cc4c3)nc12 [Compound 718, 7-(1-cyclopropylpiperidin-4-yl)-9-methyl-2-(2-methyl-2H-indazol-5-yl)-4H-pyrido[1,2-a]pyrimidin-4-one] | *** (an EC1.5× between >0.3 μM and ≤1 μM is indicated by three stars (***)) | **** (a fold increase between >1.5 and ≤1.65 is indicated by four stars (****)) | < 0.1 |
| 237 to 241 | CCN1CCC(c2cc(C)c3nc(-c4ccc5nn(C)cc5c4)cc(=O)n3c2)CC1 [Compound 719, 7-(1-ethylpiperidin-4-yl)-9-methyl-2-(2-methyl-2H-indazol-5-yl)-4H-pyrido[1,2-a]pyrimidin-4-one] | **** (an EC1.5x≤0.3 μM is indicated by four stars (****)) | **** (a fold increase between >1.5 and ≤1.65 is indicated by four stars (****)) | < 0.1 |
| 254 to 264 | Cc1cn2nc(-c3cc(=O)n4cc(N5CCNCC5)cc(C)c4n3)cc2c(C)n1 [Compound 720, 2-(4,6-dimethylpyrazolo[1,5-a]pyrazin-2-yl)-9-methyl-7-(piperazin-1-yl)-4H-pyrido[1,2-a]pyrimidin-4-one] | **** (an EC1.5x≤0.3 μM is indicated by four stars (****)) | ***** (a fold increase >1.65 is indicated by five stars (*****)) | < 0.1 |
| 211 | Cc1cc(C2CCNCC2)cn2c(=O)cc(-c3ccc4nn(C)cc4c3)nc12 [Compound 721, 9-methyl-2-(2-methyl-2H-indazol-5-yl)-7-(piperidin-4-yl)-4H-pyrido[1,2-a]pyrimidin-4-one] | **** (an EC1.5x≤0.3 μM is indicated by four stars (****)) | ***** (a fold increase >1.65 is indicated by five stars (*****)) | < 0.1 |
| 249 to 252 | Cc1cn2nc(-c3cc(=O)n4cc(OC5CCN(C)CC5)ccc4n3)cc2c(C)n1 [Compound 722, 2-(4,6-dimethylpyrazolo[1,5-a]pyrazin-2-yl)-7-[(1-methylpiperidin-4-yl)oxy]-4H-pyrido[1,2-a]pyrimidin-4-one] | **** (an EC1.5x≤0.3 μM is indicated by four stars (****)) | ***** (a fold increase >1.65 is indicated by five stars (*****)) | < 0.1 |
| 250 to 252 | CCCc1nc(C)cn2nc(-c3cc(=O)n4cc(N5CCNCC5)ccc4n3)cc12 [Compound 723, 2-(6-methyl-4-propylpyrazolo[1,5-a]pyrazin-2-yl)-7-(piperazin-1-yl)-4H-pyrido[1,2-a]pyrimidin-4-one] | **** (an EC1.5x≤0.3 μM is indicated by four stars (****)) | ***** (a fold increase >1.65 is indicated by five stars (*****)) | < 0.1 |
| 246 to 248 | CCCc1nc(C)cn2nc(-c3cc(=O)n4cc(N5CCN(C)CC5)ccc4n3)cc12 [Compound 724, 7-(4-methylpiperazin-1-yl)-2-(6-methyl-4-propylpyrazolo[1,5-a]pyrazin-2-yl)-4H-pyrido[1,2-a]pyrimidin-4-one] | *** (an EC1.5× between >0.3 μM and ≤1 μM is indicated by three stars (***)) | ***** (a fold increase >1.65 is indicated by five stars (*****)) | 0.3 to 1 |
| 231 to 233 | CCCc1nc(C)cn2nc(-c3cc(=O)n4cc(N5CCN(CC)CC5)ccc4n3)cc12 [Compound 725, 7-(4-ethylpiperazin-1-yl)-2-(6-methyl-4-propylpyrazolo[1,5-a]pyrazin-2-yl)-4H-pyrido[1,2-a]pyrimidin-4-one] | *** (an EC1.5× between >0.3 μM and ≤1 μM is indicated by three stars (***)) | ***** (a fold increase >1.65 is indicated by five stars (*****)) | 0.1 to 0.3 |
| 225 to 227 | CCCc1nc(C)cn2nc(-c3cc(=O)n4cc(N5CCN(CCO)CC5)ccc4n3)cc12 [Compound 726, 7-[4-(2-hydroxyethyl)piperazin-1-yl]-2-(6-methyl-4-propylpyrazolo[1,5-a]pyrazin-2-yl)-4H-pyrido[1,2-a]pyrimidin-4-one] | ** (an EC1.5× between >1 μM and ≤3 μM is indicated by two stars (**)) | **** (a fold increase between >1.5 and ≤1.65 is indicated by four stars (****)) | 0.3 to 1 |
| 195 to 197 | CCCc1nc(C)cn2nc(-c3cc(=O)n4cc(N5CCN[C@H](C)C5)ccc4n3)cc12 [Compound 727, 7-[(3R)-3-methylpiperazin-1-yl]-2-(6-methyl-4-propylpyrazolo[1,5-a]pyrazin-2-yl)-4H-pyrido[1,2-a]pyrimidin-4-one] | **** (an EC1.5x≤0.3 μM is indicated by four stars (****)) | ***** (a fold increase >1.65 is indicated by five stars (*****)) | < 0.1 |
| 195 to 197 | CCCc1nc(C)cn2nc(-c3cc(=O)n4cc(N5CCN[C@@H](C)C5)ccc4n3)cc12 [Compound 728, 7-[(3S)-3-methylpiperazin-1-yl]-2-(6-methyl-4-propylpyrazolo[1,5-a]pyrazin-2-yl)-4H-pyrido[1,2-a]pyrimidin-4-one] | **** (an EC1.5x≤0.3 μM is indicated by four stars (****)) | ***** (a fold increase >1.65 is indicated by five stars (*****)) | 0.1 to 0.3 |
| 249 to 251 | CCCc1nc(C)cn2nc(-c3cc(=O)n4cc(N5C[C@@H](C)N[C@@H](C)C5)ccc4n3)cc12 [Compound 729, 7-[(3R,5S)-3,5-dimethylpiperazin-1-yl]-2-(6-methyl-4-propylpyrazolo[1,5-a]pyrazin-2-yl)-4H-pyrido[1,2-a]pyrimidin-4-one] | *** (an EC1.5× between >0.3 μM and ≤1 μM is indicated by three stars (***)) | ***** (a fold increase >1.65 is indicated by five stars (*****)) | 0.1 to 0.3 |
